We go through 26 compounds from US7435837B2, “Dihydrobenzofuranyl alkanamine derivatives and methods for using same” (Wyeth, priority 2003, dated 2008).

Counter-ions that a name gives are not always drawn. Bounds are passed on as bounds.

For orientation: melting point means the temperature, or range, at which the solid turns liquid. Compound `NCC1Cc2cccc(-c3ccsc3)c2O1` (racemic) (as salt: hydrochloride) [Example 44, (±)-1-(7-thien-3-yl-2,3-dihydro-1-benzofuran-2-yl)methanamine] returned a melting point above 200 °C.
Regarding `Cc1ccccc1-c1cccc2c1OC(CN)C2` (racemic) (as salt: hydrochloride) [Example 47, (±)-1-[7-(2-methylphenyl)-2,3-dihydro-1-benzofuran-2-yl]methanamine], the melting point was above 200 °C.
In the case of `NCC1Cc2cccc(-c3ccccc3F)c2O1` (racemic) (as salt: hydrochloride) [Example 50, (±)-1-[7-(2-fluorophenyl)-2,3-dihydro-1-benzofuran-2-yl]methanamine] it was 244 to 246 °C; in that of `NCC1Cc2cccc(-c3ccccc3C(F)(F)F)c2O1` (racemic) (as salt: hydrochloride) [Example 53, (±)-1-{7-[2-(trifluoromethyl)phenyl]-2,3-dihydro-1-benzofuran-2-yl}methanamine], 204 to 205 °C.
On to `Cc1cccc(C)c1-c1cccc2c1OC(CN)C2` (racemic) (as salt: hydrochloride) [Example 56, (±)-1-[7-(2,6-dimethylphenyl)-2,3-dihydro-1-benzofuran-2-yl]methanamine], for which the melting point was above 250 °C.
With `COc1ccccc1-c1cccc2c1OC(CN)C2` (racemic) (as salt: hydrochloride) [Example 59, (±)-1-[7-(2-methoxyphenyl)-2,3-dihydro-1-benzofuran-2-yl]methanamine], the melting point was above 250 °C.
`NCC1Cc2cccc(-c3ccccc3Cl)c2O1` (racemic) (as salt: hydrochloride) [Example 60, (±)-1-[7-(2-chlorophenyl)-2,3-dihydro-1-benzofuran-2-yl]methanamine] displayed a melting point above 250 °C.
In turn, `CC(C)c1ccccc1-c1cccc2c1OC(CN)C2` (racemic) (as salt: hydrochloride) [Example 61, (±)-[7-(2-isopropylphenyl)-2,3-dihydro-1-benzofuran-2-yl]methylamine] had a melting point of 202 to 204 °C.
The figure for `NCC1Cc2cccc(-c3cccc(F)c3)c2O1` (racemic) (as salt: hydrochloride) [Example 64, (±)-1-[7-(3-fluorophenyl)-2,3-dihydro-1-benzofuran-2-yl]methanamine] is 200 to 202 °C.
In the case of `NCC1Cc2cccc(-c3cccc(Cl)c3)c2O1` (racemic) (as salt: hydrochloride) [Example 65, (±)-1-[7-(3-chlorophenyl)-2,3-dihydro-1-benzofuran-2-yl]methanamine] it was 150 to 154 °C; in that of `COc1cccc(-c2cccc3c2OC(CN)C3)c1` (racemic) (as salt: hydrochloride) [Example 68, (±)-1-[7-(3-methoxyphenyl)-2,3-dihydro-1-benzofuran-2-yl]methanamine], 152 to 154 °C; in that of `NCC1Cc2cccc(-c3cccc(C(F)(F)F)c3)c2O1` (racemic) (as salt: hydrochloride) [Example 69, (±)-1-{7-[3-(trifluoromethyl)phenyl]-2,3-dihydro-1-benzofuran-2-yl}methanamine], 172 to 174 °C.
The figure for `Cc1ccc(-c2cccc3c2OC(CN)C3)cc1` (racemic) (as salt: hydrochloride) [Example 70, (±)-1-[7-(4-methylphenyl)-2,3-dihydro-1-benzofuran-2-yl]methanamine] is 231 to 232 °C.
In the case of `NCC1Cc2cccc(-c3ccc(F)cc3)c2O1` (racemic) (as salt: hydrochloride) [Example 73, (±)-1-[7-(4-fluorophenyl)-2,3-dihydro-1-benzofuran-2-yl]methanamine], the melting point is 237 to 240 °C.
Regarding `NCC1Cc2cccc(-c3ccc(Cl)cc3)c2O1` (racemic) (as salt: hydrochloride) [Example 76, (±)-1-[7-(4-chlorophenyl)-2,3-dihydro-1-benzofuran-2-yl]methanamine], the melting point is 212 to 214 °C.
`COc1ccc(-c2cccc3c2OC(CN)C3)cc1` (racemic) (as salt: hydrochloride) [Example 79, (±)-1-[7-(4-methoxyphenyl)-2,3-dihydro-1-benzofuran-2-yl]methanamine]: the melting point was in the range of 176 to 178 °C.
The figure for `NCC1Cc2cccc(-c3ccc(C(F)(F)F)cc3)c2O1` (racemic) (as salt: hydrochloride) [Example 82, (±)-1 {7-[4-(trifluoromethyl)phenyl]-2,3-dihydro-1-benzofuran-2-yl}methanamine] is above 250 °C; for `NCC1Cc2cccc(-c3ccc(Cl)cc3Cl)c2O1` (racemic) (as salt: hydrochloride) [Example 83, (±)-1-[7-(2,4-dichlorophenyl)-2,3-dihydro-1-benzofuran-2-yl]methanamine] it is 198 to 200 °C.
`NCC1Cc2cc(Cl)cc(-c3ccccc3)c2O1` (racemic) (as salt: hydrochloride) [Example 84, (±)-1-(5-chloro-7-phenyl-2,3-dihydro-1-benzofuran-2-yl)methanamine]: the melting point was 258 °C (dec.).
The figure for `NCC1Cc2cc(Cl)cc(-c3ccccc3Cl)c2O1` (racemic) (as salt: hydrochloride) [Example 87, (±)-1-[5-chloro-7-(2-chlorophenyl)-2,3-dihydro-1-benzofuran-2-yl]methanamine] is 231 to 234 °C.
On to `Cc1cccc(-c2cc(Cl)cc3c2OC(CN)C3)c1` (racemic) (as salt: hydrochloride) [Example 88, (±)-1-[5-chloro-7-(3-methylphenyl)-2,3-dihydro-1-benzofuran-2-yl]methanamine], for which the melting point is 268 to 271 °C.
Consider `NCC1Cc2cc(Cl)cc(-c3cccc(Cl)c3)c2O1` (racemic) (as salt: hydrochloride) [Example 89, (±)-1-[5-chloro-7-(3-chlorophenyl)-2,3-dihydro-1-benzofuran-2-yl]methanamine], for which the melting point is 195 °C (dec.).
In the case of `NCC1Cc2cc(Cl)cc(-c3ccsc3)c2O1` (racemic) (as salt: hydrochloride) [Example 90, (±)-(5-chloro-7-thien-3-yl-2,3-dihydro-1-benzofuran-2-yl)methylamine] it was 230 °C (dec.).
For the compound `NCC1Cc2c(F)ccc(-c3ccccc3)c2O1` (racemic) (as salt: hydrochloride) [Example 98, (±)-1-(4-fluoro-7-phenyl-2,3-dihydro-1-benzofuran-2-yl)methanamine], the melting point is 254 to 257 °C.
`Cc1ccccc1-c1ccc(F)c2c1OC(CN)C2` (racemic) (as salt: hydrochloride) [Example 99, (±)-1-[4-fluoro-7-(2-methylphenyl)-2,3-dihydro-1-benzofuran-2-yl]methanamine] displayed a melting point of 228 to 231 °C.
`NCC1Cc2cc(F)cc(-c3ccccc3Cl)c2O1` (racemic) (as salt: hydrochloride) [Example 100, (±)-1-[7-(2-chlorophenyl)-5-fluoro-2,3-dihydro-1-benzofuran-2-yl]methanamine]: the melting point was > 250 °C (dec.).
